Measurements taken from patent US12037324B2, “Biarylmethyl heterocycles” (Université de Montréal, priority 2016, dated 2024).
pEC50: −log10 of the molar value.

What was measured:
[1] = target: T1, hAT1R (Homo sapiens, UniProt P30556); test: cell-based; conditions: agonist mode; for pEC50: read-out: BRET P63 EC50
T1 sequence (P30556 1-359): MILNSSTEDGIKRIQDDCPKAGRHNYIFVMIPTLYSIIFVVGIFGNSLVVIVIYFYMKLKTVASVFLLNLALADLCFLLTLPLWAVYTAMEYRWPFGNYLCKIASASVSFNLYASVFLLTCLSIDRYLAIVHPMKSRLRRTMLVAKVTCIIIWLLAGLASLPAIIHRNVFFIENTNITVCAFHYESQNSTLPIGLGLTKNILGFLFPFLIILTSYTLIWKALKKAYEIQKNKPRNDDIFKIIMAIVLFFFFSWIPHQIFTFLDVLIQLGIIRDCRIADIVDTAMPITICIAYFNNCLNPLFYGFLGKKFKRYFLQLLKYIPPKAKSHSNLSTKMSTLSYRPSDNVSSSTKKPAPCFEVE

[2] = target: T1, hAT1R; test: cell-based; conditions: section of the 42nd table ending at r951, example numbering restarts after the DiscoveRx section; read-out: β-arrestin2 EC50
[3] = target: T2, AGTR1 (Homo sapiens, UniProt P30556); test: DiscoveRx IP1 accumulation assay (HTRF), agonist mode, Pathunter CHO-K1 AGTR1 β-arrestin cell line; type: cell-based; conditions: for pEC50: read-out: IP-1 EC50
T2 construct: host or cells: Pathunter CHO-K1 AGTR1 β-arrestin cell line (CHO-K1)
T2 sequence (P30556 1-359): T1 sequence (P30556 1-359)
Procedure, shortened: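 Agonist mode in CHO-K1 AGTR1 β-arrestin cells plated 14-16 h before; compounds at varying concentrations for 90 min at 37° C, IP1 accumulation read by HTRF (D2-conjugate and anti-IP1 cryptate, 20 min room temperature). EC50 from 4-parameter logistic fit; activity given as percentage of maximal AII effect.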

[4] = target: T2, AGTR1; test: DiscoveRx β-arrestin2 recruitment assay (enzyme complementation, Pathunter CHO-K1 AGTR1 β-arrestin cell line); type: cell-based; conditions: DiscoveRx β-arrestin2 recruitment; for DiscoveRx β-arrestin2 Ymax (%): maximal response
Procedure, shortened: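 CHO-K1 cells expressing AGTR1 with β-arrestin2 enzyme-complementation reporter, plated 14-16 h ahead in 1% serum medium, then exposed to compounds for 90 min at 37° C. Chemiluminescence read after 1 h detection. EC50 (agonist) or IC50 (antagonist) from 4-parameter logistic fit; activity as percentage of All maximal effect.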

[5] = target: T1, hAT1R; test: BRET β-arrestin2 biosensor assay, higher receptor expression (hAT1R 5 ng/well), HEK293 cells; type: cell-based; conditions: for pEC50: High AT1R Expression

SMILES	BRET P63 Ymax [1] [%]	pEC50 [1]	pEC50 [2]	IP-1 Ymax (%) [3] [%]	pEC50 [3]	pEC50 [4]	DiscoveRx β-arrestin2 Ymax (%) [4] [%]	BRET β-Arrestin2 High AT1R Expression Ymax (%) [5] [%]	pEC50 [5]
CCc1nc2c(C)cc(C)nc2n1Cc1ccc(-c2cc(-c3cccc(C)c3)ccc2-c2nnn[nH]2)cn1 [Example 177, 2-ethyl-5,7-dimethyl-3-((5-(3′-methyl-4-(1H-tetrazol-5-yl)biphenyl-3-yl)pyridin-2-yl)methyl)-3H-imidazo[4,5-b]pyridine]	23.8	7.44	7.94	22.9	6.95	7.93	52.2	91.8	8.40
CCc1nc2c(C)cc(C)nc2n1Cc1ccc(-c2cc(-c3ccccc3O)ccc2-c2nnn[nH]2)cn1 [Example 178]	19.6	7.59	7.71	20.8	7.67	8.15	75.6	89.3	8.32
CCc1nc2c(C)cc(C)nc2n1Cc1ccc(-c2cc(-c3ccccc3)ccc2-c2nnn[nH]2)cn1 [Example 179]	11.6	7.28	7.21	12.2	7.09	7.39	58.3	90.6	7.68
CCc1nc2c(C)cc(C)nc2n1Cc1ccc(-c2cc(-c3ccc(CO)cc3)ccc2-c2nnn[nH]2)cn1 [Example 180]	14.9	6.68	6.75	27.5	6.64	7.28	40.4	85.3	7.29
CCc1nc2c(C)cc(C)nc2n1Cc1ccc(-c2cc(-c3cc(C)cc(C)c3)ccc2C(=O)O)cc1 [Example 181, 4″-((2-ethyl-5,7-dimethyl-3H-imidazo[4,5-b]pyridin-3-yl)methyl)-3,5-dimethyl-[1,1′:3′,1″-terphenyl]-4′-carboxylic acid]	16.1	7.32	7.80	6.1	7.11	7.32	88.8	94.1	8.32
CCc1nc2c(C)cc(C)nc2n1Cc1ccc(-c2cc(-c3ccc(CO)cc3)ccc2C(=O)O)cc1 [Example 183]	13.2	6.75	6.86	14.1	6.70	7.18	36.2	90.0	7.20
CCc1nc2c(C)cc(C)nc2n1Cc1ncc(-c2cc(-c3ccccc3)ccc2-c2nnn[nH]2)cn1 [Example 190]	16.4	6.36	6.81	17.5	6.31	6.86	57.0	88.8	7.08
CCc1nc2c(C)cc(C)nc2n1Cc1ccc(-c2cc(-c3cccc(C)c3)ccc2C(=O)O)cn1 [Example 195, 3-(6-((2-ethyl-5,7-dimethyl-3H-imidazo[4,5-b]pyridin-3-yl)methyl)pyridin-3-yl)-3′-methylbiphenyl-4-carboxylic acid]	13.6	6.58	6.55	5.3	6.45	6.16	77.6	87.0	7.00
